This is an account of results in patent US10703764B2, “Benzopiperazine compositions as BET bromodomain inhibitors” (FORMA Therapeutics, Inc., priority 2013, dated 2020).

In one test the target is T1, BRD4 BD2 (Homo sapiens, UniProt O60885).
T1 construct: made in house
The test is described as follows: AlphaScreen binding assay, BRD4 Bromodomain 2. In short, it runs like this: (§1)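 An AlphaScreen competition format was used with His-BRD4 BD1 or BD2 and biotin-H4 K5/8/12/16-acetyl peptide, each at matched final levels of 50 nM (BD1) or 100 nM (BD2). Incubation in HEPES/NaCl buffer with 0.1% BSA and 0.01% Triton X-100 ran ≥1 h before IC50 determination.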
In general terms: Bead proximity is the source of the signal in Alpha formats.

The test system of the next test is MV4-11 cells. The test can be described thus: Oncology cell growth assay (3-day proliferation, CellTiter-Glo). Type of test: cell-based. Conditions: Homo sapiens, MV4-11, 72 h, AML cell line MV4-11, 72 hours, compounds grouped by IC50 range, read-out: MV4-11 IC50 (inhibition of proliferation, gIC50). In short, it runs like this:
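72 h, 37° C, 5% CO2; MV4-11, 3000 cells/well, RPMI 1640 + 10% FBS. Compound final 10, 3.3, 1.1, 0.37, 0.12, 0.041, 0.013, 0.0045 μM. Readout CellTiter-Glo luminescence; gIC50 by 4-parameter logistic fit, normalised to DMSO and no-cell background.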
For orientation: In ATP-based viability assays light output follows the ATP content of the culture.

The target in another test is T2, BRD4 BD1 (Homo sapiens, UniProt O60885).
T2 construct: made in house
The test is described as follows: AlphaScreen binding assay, BRD4 Bromodomain 1. An outline of the steps: as §1

Consider `CC(=O)N1c2ccc(-c3ccc(S(=O)(=O)NCCO)cc3)cc2N(C(=O)OC2CCCCC2)C[C@@H]1C` [Example I-1217], for which the values for the IC50 at BRD4 BD2, in the test on MV4-11 cells and at BRD4 BD1 were below 0.05 µM, below 0.1 µM and 0.1 to 1 µM, respectively.
Take `CCS(=O)(=O)Nc1cccc(-c2ccc3c(c2)N(C(=O)OC2CCOCC2)C[C@H](C)N3C(C)=O)c1` [Example I-1228]: the IC50 lay within 0.05 to 0.5 µM at BRD4 BD2, 0.1 to 0.5 µM in the test on MV4-11 cells and 0.1 to 1 µM on BRD4 BD1.
The matching figures for `CC(=O)N1c2cc([N+](=O)[O-])c(-c3cnn(C4CC4)c3)cc2N(C(=O)OC(C)C)C[C@@H]1C` [Example I-195, isopropyl (S)-4-acetyl-7-(1-cyclopropyl-1H-pyrazol-4-yl)-3-methyl-6-nitro-3,4-dihydroquinoxaline-1(2H)-carboxylate]: above 0.5 µM, above 0.5 µM and 0.1 to 1 µM.
The matching figures for `COC(=O)N1c2ccc(-c3cnc(N)cn3)cc2N(C(=O)OC(C)C)C[C@@H]1C` [Example I-485]: 0.05 to 0.5 µM, above 0.5 µM and 0.1 to 1 µM.
The matching figures for `CC(=O)N1c2ccc(-c3ccc(NS(C)(=O)=O)cc3)cc2N(C(=O)c2ccco2)C[C@@H]1C` [Example I-279]: below 0.05 µM, below 0.1 µM and 0.1 to 1 µM.
Turning to `COC(=O)Nc1ccc2c(c1)N(C(C)=O)[C@@H](C)CN2C(=O)OC(C)C` [Example I-202, Isopropyl (S)-4-acetyl-6-((methoxycarbonyl)amino)-3-methyl-3,4-dihydro quinoxaline-1(2H)-carboxylate], the IC50 was above 0.5 µM at BRD4 BD2, above 0.5 µM in the test with MV4-11 cells and above 10 µM on BRD4 BD1.
As for `CC(=O)N1c2ccc(-c3ccc(S(=O)(=O)CC4CC4)cc3)cc2N(C(=O)OC2CCCCC2)C[C@@H]1C` [Example I-1237], the IC50 lay in the range of 0.05 to 0.5 µM on BRD4 BD2, 0.1 to 0.5 µM in the test with MV4-11 cells and 0.1 to 1 µM on BRD4 BD1.
The matching figures for `CCOC(=O)N1C[C@H](C)N(C(C)=O)c2ccc(-c3ccc(S(=O)(=O)NC(C)(C)C)cc3)cc21` [Example I-1129]: 0.05 to 0.5 µM, 0.1 to 0.5 µM and 1 to 10 µM.
The matching figures for `CC(=O)N[C@@H]1CCN(C(=O)c2ccc(-c3ccc4c(c3)N(C(=O)OC(C)C)C[C@H](C)N4C(C)=O)cc2)C1` [Example I-540]: below 0.05 µM, below 0.1 µM and below 0.1 µM.
Consider `CC(=O)N1c2ccc(-c3ccc(F)c(S(C)(=O)=O)c3)cc2N(C(=O)OC(C)C)C[C@@H]1C` [Example I-1101], for which the IC50 at BRD4 BD2 is 0.05 to 0.5 µM; in the test with MV4-11 cells it was above 0.5 µM; at BRD4 BD1, 1 to 10 µM.
As to `CC(C)OC(=O)N1C[C@H](C)N(C(=O)C2CC2)c2ccc(-c3cnn(C[C@H]4CCNC4)c3)cc21` [Example I-690], the IC50 on BRD4 BD2 was 0.05 to 0.5 µM; in the test on MV4-11 cells, above 0.5 µM; on BRD4 BD1 it was 0.1 to 1 µM.
The matching figures for `CC(=O)N1c2ccc(-c3cnn(C4CC4)c3)cc2N(C(=O)Oc2cccc(F)c2)C[C@@H]1C` [Example I-502]: 0.05 to 0.5 µM, 0.1 to 0.5 µM and 0.1 to 1 µM.
The matching figures for `CC(=O)N1c2cc(NS(C)(=O)=O)c(-c3cnn(C4CC4)c3)cc2N(C(=O)OC(C)C)C[C@@H]1C` [Example I-213, Isopropyl (S)-4-acetyl-7-(1-cyclopropyl-1H-pyrazol-4-yl)-3-methyl-6-(methylsulfonamido)-3,4-dihydroquinoxaline-1(2H)-carboxylate]: above 0.5 µM, above 0.5 µM and above 10 µM.
The matching figures for `CC(=O)N1c2ccc(-c3cnn(Cc4ccccc4)c3)cc2N(C(=O)c2ccco2)C[C@@H]1C` [Example I-409]: below 0.05 µM, below 0.1 µM and 0.1 to 1 µM.
Take `CC(=O)N1c2ccc(-c3ccc(S(=O)(=O)NC(C)C)cc3)cc2N(C(=O)c2ccco2)C[C@@H]1C` [Example I-274]: the IC50 on BRD4 BD2 was below 0.05 µM; in the test on MV4-11 cells it was 0.1 to 0.5 µM; on BRD4 BD1, 1 to 10 µM.
The matching figures for `CC(=O)N1c2ccc(-c3ccc(S(C)(=O)=O)cc3)cc2N(c2nc3ccccc3o2)C[C@@H]1C` [Example I-46, (S)-1-(4-(benzo[d]oxazol-2-yl)-2-methyl-6-(4-(methylsulfonyl)phenyl)-3,4-dihydroquinoxalin-1(2H)-yl)ethanone]: above 0.5 µM, 0.1 to 0.5 µM and 0.1 to 1 µM.
On to `CCOC(=O)N1C[C@H](C)N(C(C)=O)c2ccc(-c3cccc(S(=O)(=O)NC)c3)cc21` [Example I-1106], for which the IC50 fell in the range of 0.05 to 0.5 µM at BRD4 BD2, 0.1 to 0.5 µM in the test with MV4-11 cells and 1 to 10 µM on BRD4 BD1.
The matching figures for `CCS(=O)(=O)Nc1ccc(-c2ccc3c(c2)N(C(=O)C2CCC2)C[C@H](C)N3C(C)=O)cc1` [Example I-1136]: 0.05 to 0.5 µM, 0.1 to 0.5 µM and 0.1 to 1 µM.
The matching figures for `CC(=O)N1c2ccc(-c3cnn(CC(C)(C)O)c3)cc2N(C(=O)OC(C)C)C[C@@H]1C` [Example I-327]: 0.05 to 0.5 µM, 0.1 to 0.5 µM and 0.1 to 1 µM.
The matching figures for `CC(=O)N1c2ccc(-c3cnn(C4CC4)c3)cc2N(C(=O)Oc2ccccn2)C[C@@H]1C` [Example I-1322]: below 0.05 µM, below 0.1 µM and 0.1 to 1 µM.
For the compound `CC(=O)N1c2ccc(-c3cnn(CC4(F)COC4)c3)cc2N(C(=O)OC(C)C)C[C@@H]1C` [Example I-133, (S)-isopropyl 4-acetyl-7-(1-((3-fluorooxetan-3-yl)methyl)-1H-pyrazol-4-yl)-3-methyl-3,4-dihydroquinoxaline-1(2H)-carboxylate], the IC50 on BRD4 BD2 is 0.05 to 0.5 µM; in the test with MV4-11 cells it was 0.1 to 0.5 µM; at BRD4 BD1, 0.1 to 1 µM.
The matching figures for `COC(=O)N1c2ccc(-c3cnn(C(C)(C)C)c3)cc2N(C(=O)OC(C)C)C[C@@H]1C` [Example I-332]: above 0.5 µM, above 0.5 µM and 0.1 to 1 µM.
The matching figures for `CC(=O)N1c2ccc(-c3ccc(C(=O)NCCO)cc3)cc2N(C(=O)c2ccco2)C[C@@H]1C` [Example I-290]: below 0.05 µM, 0.1 to 0.5 µM and 1 to 10 µM.
The matching figures for `CNS(=O)(=O)c1ccc(-c2ccc3c(c2)N(C(=O)OC2CCCCC2)C[C@H](C)N3C(C)=O)cc1` [Example I-1261]: 0.05 to 0.5 µM, 0.1 to 0.5 µM and 0.1 to 1 µM.
As for `CC(=O)N1c2ccc(-c3ccc(S(=O)(=O)C4CC4)cc3)cc2N(C(=O)C2CC2)C[C@@H]1C` [Example I-1031], the values for the IC50 at BRD4 BD2, with MV4-11 cells and at BRD4 BD1 were 0.05 to 0.5 µM, 0.1 to 0.5 µM and 1 to 10 µM, respectively.
The matching figures for `CC(=O)N1c2ccc(-c3cnn(C4CCOCC4)c3)cc2N(C(=O)OC2CCCCC2)C[C@@H]1C` [Example I-1301]: below 0.05 µM, below 0.1 µM and below 0.1 µM.
The matching figures for `CCN(CC)S(=O)(=O)c1cc(-c2ccc3c(c2)N(C(=O)OC2CCOCC2)C[C@H](C)N3C(C)=O)ccc1OC` [Example I-1258]: 0.05 to 0.5 µM, 0.1 to 0.5 µM and 0.1 to 1 µM.
The matching figures for `CC(=O)N1c2ccc(-c3cnn(C4CC4)c3)cc2N(C(=O)Oc2cccc(Cl)c2)C[C@@H]1C` [Example I-518]: 0.05 to 0.5 µM, 0.1 to 0.5 µM and 0.1 to 1 µM.
Regarding `COC(=O)N1c2ccc(-c3cnn(CCO)c3)cc2N(C(=O)OC(C)C)C[C@@H]1C` [Example I-324], the IC50 is 0.05 to 0.5 µM on BRD4 BD2, 0.1 to 0.5 µM in the test with MV4-11 cells and 0.1 to 1 µM at BRD4 BD1.
On to `CC(=O)N1c2ccc(-c3ccc(S(C)(=O)=O)cc3)cc2N(C(=O)c2cc3cccnc3[nH]2)CC1C` (stereo not drawn) [Example I-789], for which the IC50 is below 0.05 µM on BRD4 BD2, 0.1 to 0.5 µM in the test with MV4-11 cells and 0.1 to 1 µM on BRD4 BD1.
As to `CCOC(=O)N1C[C@H](C)N(C(C)=O)c2ccc(-c3cccc(NS(=O)(=O)CC)c3)cc21` [Example I-1056], the IC50 was 0.05 to 0.5 µM on BRD4 BD2, above 0.5 µM in the test on MV4-11 cells and 1 to 10 µM at BRD4 BD1.
The matching figures for `C[C@H]1CN(C(=O)OC2CCCC2)c2cc(-c3cnn(C4CC4)c3)ccc2N1C(=O)C1CC1` [Example I-41, (S)-cyclopentyl 4-(cyclopropanecarbonyl)-7-(1-cyclopropyl-1H-pyrazol-4-yl)-3-methyl-3,4-dihydroquinoxaline-1 (2H)-carboxylate]: 0.05 to 0.5 µM, 0.1 to 0.5 µM and 0.1 to 1 µM.
With `CC(=O)N1c2cc(Cl)c(-c3ccc(S(C)(=O)=O)cc3)cc2N(C(=O)OC(C)C)C[C@@H]1C` [Example I-218, Isopropyl (S)-4-acetyl-6-chloro-3-methyl-7-(4-(methylsulfonyl)phenyl)-3,4-dihydroquinoxaline-1(2H)-carboxylate], the IC50 was above 0.5 µM on BRD4 BD2, above 0.5 µM in the test on MV4-11 cells and 1 to 10 µM at BRD4 BD1.
Take `CC(=O)N1c2ccc(-c3ccc(C(=O)N(C)CC(=O)N(C)C)cc3)cc2N(C(=O)OC(C)C)C[C@@H]1C` [Example I-550]: the IC50 is 0.05 to 0.5 µM on BRD4 BD2, 0.1 to 0.5 µM with MV4-11 cells and below 0.1 µM at BRD4 BD1.
With `CC(=O)N1c2ccc(-c3ccc(S(C)(=O)=O)cc3)cc2N(C(=O)C2CC2)C[C@@H]1C` [Example I-781], the results for the IC50 at BRD4 BD2, in the test with MV4-11 cells and at BRD4 BD1 were 0.05 to 0.5 µM, above 0.5 µM and 1 to 10 µM, respectively.
